Data on 11 compounds can be found in ChEMBL document CHEMBL1201862, “PubChem BioAssay data set” (2004).

Values joined by “and” are separate entries in the source; they are usually repeats but may differ in a detail not shown here. Equal entries are not always repeated.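 Tested at 5 concentrations; 48 h exposure; 96-well plates; endpoints linearly interpolated, else capped at highest concentration. GI50 is the concentration that inhibits growth by half.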 Active and inactive are the calls of the source. Cut-off read from the data, not from the text of the source: active = GI50 up to about 1.1 µM and inactive = higher. Where only a bound is given, the exact number is not on record here.

Assay in all cases: DTP human tumour cell line panel, 48 h
The test system of experiment [1] is UO-31.
Experiment [2] deals with IGROV-1.
Experiment [3] concerns UACC-257.
Experiment [4] has as its system 786-0.
Experiment [5] concerns NCI-H522.
Experiment [6] concerns HCT-15.
Experiment [7] concerns TK-10.
In experiment [8] the test system is T47D.
Experiment [9] has as its system OVCAR-3.
Experiment [10] has as its system HCC 2998.
The subject of experiment [11] is SF-295.
The subject of experiment [12] is HT-29.
Experiment [13] deals with HOP-92.
Experiment [14] concerns PC-3.
The test system of experiment [15] is MDA-N.
Experiment [16] concerns Hs-578T.
Experiment [17] relates to SN12C.
Experiment [18] deals with UACC-62.
Experiment [19] has as its system M14.
Experiment [20] relates to SK-MEL-2.

`O=c1c2c3c(sc2nc2n1N=C(c1ccc([N+](=O)[O-])cc1)CS2)CCCC3`: the GI50 in [1] is > 100 µM (inactive); in experiment [2], > 100 µM (inactive); in [3] it was > 100 µM (inactive); in [4], > 100 µM (inactive); in experiment [5], > 100 µM (inactive); in experiment [6] it was above 100 µM. Moreover, the GI50 is 42.2 µM (inactive) in [7]; > 100 µM (inactive) in [8]; > 100 µM (inactive) in experiment [9]; > 100 µM (inactive) in experiment [10]; > 100 µM (inactive) in [11]; > 100 µM (inactive) in experiment [12]. Also, the GI50 in experiment [13], in experiment [14], in experiment [15], in [16], in experiment [17] and in experiment [18] was > 100 µM (inactive) in each case.

For the compound `COc1cc2c(cc1OC)C(=O)/C(=C/c1ccc(N(C)C)cc1)CC2`, the GI50 in experiment [19] was > 10 µM (inactive); in experiment [1], > 10 µM (inactive); in [2] it was > 10 µM (inactive); in [20], 0.962 µM (active); in experiment [3], 3.38 µM (inactive); in experiment [4] it was > 10 µM (inactive). The 50% growth inhibitory concentration (GI50) in experiment [6] was above 10 µM; in experiment [7], > 10 µM (inactive); in experiment [8], > 10 µM (inactive); in experiment [9] it was > 10 µM (inactive); in [10], > 10 µM (inactive); in [11], > 10 µM (inactive). The GI50 in experiment [12], in [13], in experiment [14], in experiment [15], in experiment [16] and in experiment [17] was > 10 µM (inactive) throughout. The GI50 in experiment [18] is > 10 µM (inactive).

With `O=c1cc(-c2ccccc2)nc2[nH]ccn12`, the GI50 in experiment [19] is > 10 µM (inactive); in experiment [1], 7.87 µM (inactive); in [2], > 10 µM (inactive); in [20], > 10 µM (inactive); in [5] it was > 10 µM (inactive); in experiment [6] it was above 10 µM. For the same compound, the GI50 in [7], in [8], in experiment [9], in [10], in [11] and in [12] was > 10 µM (inactive) each time. For the same compound, the GI50 in [14], in experiment [15], in experiment [16], in experiment [17] and in experiment [18] was > 10 µM (inactive) throughout.

Turning to `COc1ccc2c(c1)CCCN1Cc3cc(OC)c(OC)cc3CC21` (stereo not drawn), the GI50 is 18.9 µM (inactive) in experiment [19]; 48.8 µM (inactive) in experiment [1]; 22.1 µM (inactive) in experiment [2]; 56.1 µM (inactive) in [3]; 73.3 µM (inactive) in experiment [4]; 75.5 µM (inactive) in [5]. Further, the 50% growth inhibitory concentration (GI50) in experiment [6] was above 100 µM; in experiment [7] it was > 100 µM (inactive); in experiment [8], 20.2 µM (inactive); in [9], 82.2 µM (inactive); in experiment [10], 15.8 µM (inactive); in [11] it was > 100 µM (inactive). For the same compound, the GI50 is 28.1 µM (inactive) in experiment [12]; 15.9 µM (inactive) in experiment [13]; > 100 µM (inactive) in experiment [14]; > 100 µM (inactive) in experiment [15]; > 100 µM (inactive) in experiment [16]; 89.1 µM (inactive) in experiment [17]. Moreover, the GI50 in experiment [18] is 86.3 µM (inactive).

As for `C=CCSc1nnc2cc(CN3CCCC3)c(-c3ccc(Cl)cc3)nn12`, the GI50 in experiment [19] was 18.1 µM (inactive); in experiment [1], 16 µM (inactive); in [2], 20.7 µM (inactive); in experiment [20] it was 19.2 µM (inactive); in [3], 17.5 µM (inactive); in experiment [4], 17.1 µM (inactive). For the same compound, the GI50 in experiment [5] is 18.9 µM (inactive); in [6], 21.3 µM; in [7], 20.7 µM (inactive); in experiment [8], 20.9 µM (inactive); in experiment [9], 17.1 µM (inactive); in experiment [11] it was 22.2 µM (inactive). For the same compound, the GI50 in experiment [12] was 15 µM (inactive); in [13] it was 16.1 µM (inactive); in experiment [14] it was 17.9 µM (inactive); in [15], 16.7 µM (inactive); in [16], 40.6 µM (inactive); in experiment [17], 16.8 µM (inactive). Moreover, in [18], the GI50 is 14.4 µM (inactive).

Turning to `C=C(Br)C(C)(Cl)CCC(Br)C(C)(C)Cl` (stereo not drawn), the GI50 in [19] is 32.9 µM (inactive); in [1], > 100 µM (inactive); in experiment [2], 77.3 µM (inactive); in experiment [3], 28.9 µM (inactive); in experiment [4], 20.6 µM (inactive); in experiment [5], 40.5 µM (inactive). In addition, the GI50 in experiment [6] was 43 µM; in experiment [7], > 100 µM (inactive); in experiment [8] it was > 100 µM (inactive); in experiment [9], 20 µM (inactive); in [10], > 100 µM (inactive); in experiment [11], 34.8 µM (inactive). Moreover, the GI50 was 34.6 µM (inactive) in [12]; 35.1 µM (inactive) in [13]; 39.4 µM (inactive) in [14]; 48 µM (inactive) in [15]; 89.7 µM (inactive) in experiment [16]; 40 µM (inactive) in experiment [17]. Besides, the GI50 in experiment [18] was 86.9 µM (inactive).

For the compound `CC(C)C(=O)OCN(C)c1nc(N(C)COC(=O)C(C)C)nc(N(C)COC(=O)C(C)C)n1`, the GI50 in [19] was 17 µM (inactive); in experiment [1], 22.2 µM (inactive); in experiment [20], 23.2 µM (inactive); in experiment [3], 19.1 µM (inactive); in [4] it was 28.5 µM (inactive); in experiment [5] it was 18.3 µM (inactive). Besides, the GI50 in experiment [6] was 21.6 µM; in [7] it was 85.7 µM (inactive); in experiment [8], 30.3 µM (inactive); in [9], 36.6 µM (inactive); in experiment [11], 27.3 µM (inactive); in experiment [12] it was 25.2 µM (inactive). Besides, the GI50 is 27.7 µM (inactive) in experiment [14], 22.2 µM (inactive) in experiment [15], 17.9 µM (inactive) in [16] and 28.4 µM (inactive) in [17].

Regarding `CCN1CCC(O)(c2ccc(Oc3ccc(C)cc3)cc2)C(C(=O)c2ccc(Oc3ccc(C)cc3)cc2)C1` (stereo not drawn), the GI50 in experiment [19] was 7.43 µM (inactive); in experiment [1], 3.77 µM (inactive); in [2] it was 12.5 µM (inactive); in [20], 18 µM (inactive); in [3], 13.2 µM (inactive); in experiment [4], 4.99 µM (inactive). Besides, the 50% growth inhibitory concentration (GI50) in [6] was 4.01 µM; in experiment [7], 8.61 µM (inactive); in experiment [8], 12.8 µM (inactive); in [9], 16 µM (inactive); in experiment [10], 7.91 µM (inactive); in experiment [11] it was 5.69 µM (inactive). The GI50 is 3.33 µM (inactive) in experiment [12]; 10 µM (inactive) in experiment [13]; 10.9 µM (inactive) in experiment [14]; 10.7 µM (inactive) in experiment [15]; 17.8 µM (inactive) in [16]; 14.8 µM (inactive) in experiment [17]. In [18], the GI50 was 12.1 µM (inactive).

Take `OC(CBr)C(O)C(O)C(O)CBr` (stereo not drawn): the GI50 is 28.1 µM (inactive) in experiment [19]; > 100 µM (inactive) and > 66.2 µM (inactive) in experiment [20]; > 69 µM (inactive) and > 64 µM (inactive) in experiment [3]; 13.7 µM (inactive) in experiment [4]; > 67.1 µM (inactive) and > 48.6 µM (inactive) in [5]; > 100 µM (inactive) in experiment [7]. In addition, the GI50 was > 100 µM (inactive) in [8]; > 55.1 µM (inactive) in [9]; > 100 µM (inactive) and > 72.8 µM (inactive) in experiment [10]; > 100 µM (inactive) and > 56 µM (inactive) in experiment [12]; > 81.1 µM (inactive) in experiment [14]; > 45.9 µM (inactive) in experiment [15]. The GI50 in [16] was > 100 µM (inactive).

Consider `O=C(Nc1ccc(F)cc1)c1cc2c(cc1Cl)Sc1nccn1S2(=O)=O`, for which the GI50 in experiment [19] was > 100 µM (inactive); in [2], > 100 µM (inactive); in [20], > 100 µM (inactive); in experiment [4], 28.2 µM (inactive); in experiment [5] it was 76.9 µM (inactive); in experiment [6], 81.7 µM. For the same compound, the GI50 in experiment [8] is 45.9 µM (inactive); in experiment [9], 84.5 µM (inactive); in [10], > 100 µM (inactive); in [11], 28.9 µM (inactive); in experiment [12] it was > 100 µM (inactive); in experiment [14], 90.6 µM (inactive). Moreover, the values for the GI50 in [15], in [16] and in experiment [17] were > 100 µM (inactive), 30.8 µM (inactive) and 51.2 µM (inactive), respectively.

As to `O=C(O)CSC(CC1(c2ccc(Cl)cc2)NC(=O)CS1)c1ccc(Cl)cc1` (stereo not drawn), the GI50 in experiment [19] was > 100 µM (inactive); in experiment [1] it was > 100 µM (inactive); in experiment [2], > 100 µM (inactive); in experiment [20] it was 83.6 µM (inactive); in experiment [3], 65.9 µM (inactive); in [4] it was > 100 µM (inactive). The GI50 in [5] was 46.2 µM (inactive); in experiment [6] it was above 100 µM; in experiment [7] it was > 100 µM (inactive); in experiment [8] it was 80.9 µM (inactive); in [9], 45.6 µM (inactive); in [11], > 100 µM (inactive). Also, the GI50 was > 100 µM (inactive) in experiment [12]; 22.8 µM (inactive) in experiment [13]; > 100 µM (inactive) in experiment [14]; > 100 µM (inactive) in experiment [15]; > 100 µM (inactive) in experiment [16]; > 100 µM (inactive) in [17]. In addition, the GI50 in experiment [18] is 85.1 µM (inactive).
